# Read-outs that look alike come from different tables or passages of the source.
# What was measured:
# [1] = system: CYP1A2, 2A6, 2B6, 2C8, 2C9, 2C19, 2D6, 3A4; UGT1A1, 1A3, 1A4, 1A6, 1A9, 2B4, 2B7, 2B15, 2B17; P-gp; BCRP; BSEP; OCT1, OCT2; OATP1B1, OATP1B3; MATE 1, MATE 2-K …; assay: Inhibition of enzymes and transporters; format: in vitro ADME
# [2] = molecular target: T1, OAT3 (Homo sapiens, UniProt Q8TCC7); assay: In vitro transporter inhibition, OAT3; format: in vitro ADME
# T1 sequence (Q8TCC7 1-542): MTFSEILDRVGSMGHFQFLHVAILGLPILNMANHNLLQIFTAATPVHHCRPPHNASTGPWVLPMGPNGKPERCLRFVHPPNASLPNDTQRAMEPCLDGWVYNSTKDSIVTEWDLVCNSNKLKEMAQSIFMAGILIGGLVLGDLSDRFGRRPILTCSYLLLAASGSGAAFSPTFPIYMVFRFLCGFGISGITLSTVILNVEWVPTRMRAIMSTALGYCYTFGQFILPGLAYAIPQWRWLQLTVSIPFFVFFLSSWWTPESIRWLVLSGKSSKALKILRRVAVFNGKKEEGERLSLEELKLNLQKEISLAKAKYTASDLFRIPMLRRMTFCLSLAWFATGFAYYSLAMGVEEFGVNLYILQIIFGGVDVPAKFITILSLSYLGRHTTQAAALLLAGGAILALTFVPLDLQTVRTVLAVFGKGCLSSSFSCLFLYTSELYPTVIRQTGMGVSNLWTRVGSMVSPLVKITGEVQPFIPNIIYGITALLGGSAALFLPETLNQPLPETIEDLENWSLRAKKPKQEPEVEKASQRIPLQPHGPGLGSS
# Text: (§1) However, based on PBPK modeling, no interaction with OAT substrates is expected at clinically relevant concentrations.
# [3] = molecular target: HIV-1 integrase (Human immunodeficiency virus type 1 group M subtype B, UniProt P04585)
# [4] = Protein-adjusted IC90; format: cell-based; conditions: read-out: protein-adjusted IC90 (PA-IC90)
# Text: Mar. 4-7, 2019, Seattle, WA.).
# [5] = Lactating rats, exposure of pups through milk; format: in vivo, rat; conditions: administered to lactating rats
# Text: The Centers for Disease Control and Prevention recommends that HIV-1-infected mothers in the United States not breastfeed their infants to avoid risking postnatal transmission of HIV-1 infection. It is not known if the components of the Combination are present in human breast milk, affect human milk production, or have effects on the breastfed infant. […] Animal Data: Cabotegravir: […] Rilpivirine: […]
# [6] = system: HIV-1 clinical isolates; assay: Antiviral activity in PBMCs against clinical isolates; format: cell-based; conditions: Human immunodeficiency virus 1, PBMC
# [7] = Fertility studies in rats; format: in vivo, rat; conditions: oral, 1,000 mg/kg/day up to 26 weeks, male and female rats
# [8] = molecular target: T2, renal organic anion transporters (OAT)1 (Homo sapiens, UniProt Q4U2R8); assay: In vitro transporter inhibition, OAT1; format: in vitro ADME
# T2 sequence (Q4U2R8 1-563): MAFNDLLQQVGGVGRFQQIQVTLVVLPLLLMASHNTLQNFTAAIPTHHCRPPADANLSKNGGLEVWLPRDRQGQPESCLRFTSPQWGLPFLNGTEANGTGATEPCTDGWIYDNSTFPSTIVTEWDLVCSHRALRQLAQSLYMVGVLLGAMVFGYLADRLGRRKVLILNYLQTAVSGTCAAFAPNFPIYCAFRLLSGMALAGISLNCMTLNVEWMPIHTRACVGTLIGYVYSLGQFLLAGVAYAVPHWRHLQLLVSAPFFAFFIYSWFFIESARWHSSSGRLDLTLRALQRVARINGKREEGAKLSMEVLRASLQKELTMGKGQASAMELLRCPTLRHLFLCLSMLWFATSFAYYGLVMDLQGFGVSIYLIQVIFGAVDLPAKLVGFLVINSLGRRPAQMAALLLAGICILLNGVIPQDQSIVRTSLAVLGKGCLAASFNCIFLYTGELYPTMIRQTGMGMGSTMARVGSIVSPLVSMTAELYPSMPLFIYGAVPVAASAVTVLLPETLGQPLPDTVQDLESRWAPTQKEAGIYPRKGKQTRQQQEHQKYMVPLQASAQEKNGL
# Text: as §1
# [9] = Pharmacokinetics in specific populations (renal, hepatic impairment, UGT1A1 genotype); format: in vivo, human; conditions: for pharmacokinetic differences vs matching healthy subjects: oral cabotegravir
# Text: No dosage adjustment is necessary for patients with mild to severe renal impairment (not on dialysis).
# No dosage adjustment is necessary for patients with mild to moderate hepatic impairment (Child-Pugh Score A or B).
# No dose adjustment is required in subjects with UGT1A1 polymorphisms.
# [10] = Multiple-dose pharmacokinetics after monthly IM injections, population PK post-hoc estimates FLAIR and ATLAS; format: in vivo, human; conditions: 400-mg monthly IM injection
# [11] = Pharmacokinetic properties of the components of the Combination (Table 6); parameters: species or system human; conditions: in vivo
# [12] = system: HIV-1; assay: Antiviral activity in combination with other antivirals, cell culture; format: cell-based; conditions: cell culture
# [13] = oral administration once daily; cited from earlier work
# [14] = Reproduction and development studies in rats
# [15] = system: OATP1B1, OATP1B3, OCT1, P-gp, BCRP; assay: In vitro transporter substrate assessment; format: in vitro ADME
# [16] = Genotoxicity: bacterial reverse mutation assay, mouse lymphoma assay, in vivo rodent micronucleus assay
# [17] = system: CYP1A2, CYP2B6, CYP3A4; assay: In vitro CYP induction; format: in vitro ADME
# [18] = Mass balance studies, single-dose oral [14C] drug; format: in vivo, human; conditions: single-dose oral [14C] drug
smiles,measurement,setting,value
"C[C@H]1CO[C@@H]2Cn3cc(C(=O)NCc4ccc(F)cc4F)c(=O)c(O)c3C(=O)N12 [Cabotegravir, (3S,11aR)-N-[(2,4-difluorophenyl)methyl]-6-hydroxy-3-methyl-5,7-dioxo-2,3,5,7,11,11a-hexahydro[1,3]oxazolo[3,2-a]pyrido[1,2-d]pyrazine-8-carboxamide]","inhibition of listed CYP, UGT enzymes and transporters",[1],not a clinically relevant inhibitor
same,IC50,[2],410 nM
same,IC50,[3],3 nM
same,IC90,[4],0.166 µg/mL
same,presence in milk,[5],present in milk
same,EC50,"[6]; read-out: EC50 range, panel of 24 HIV-1 clinical isolates, PBMCs",0.02 to 1.06 nM
same,EC50,"[6]; read-out: EC50 range, subtype B clinical isolates, n=3",0.02 to 0.5 nM
same,EC50,"[6]; read-out: median EC50, panel of 24 HIV-1 clinical isolates (group M subtypes A-G, group O), PBMCs",0.19 nM
same,EC50,"[6]; read-out: median EC50, subtype B clinical isolates, n=3",0.05 nM
same,"effects on reproductive organs, spermatogenesis, mating or fertility",[7],did not cause adverse effects
same,IC50,[8],810 nM
same,"increase in mean steady-state AUC, Cmax, and Ctau vs normal UGT1A1 metabolism","[9]; UGT1A1 genotypes conferring poor metabolism, long-acting injection",1.2 fold
same,pharmacokinetic differences vs matching healthy subjects,[9]; moderate hepatic impairment,No clinically important pharmacokinetic differences
same,pharmacokinetic differences vs matching healthy subjects,"[9]; severe renal impairment (CrCL<30 mL/min, not on dialysis)",No clinically important pharmacokinetic differences
same,"Ctrough, geometric mean",[10],2900 ng/mL
same,AUC,"[10]; human, in vivo, read-out: AUCtau, geometric mean",2460 µg·h/mL
same,Cmax,"[10]; human, in vivo, read-out: Cmax, geometric mean",4200 ng/mL
same,Tmax,"[11]; human, im, intramuscular injection, read-out: Tmax, median (converted)",168 h
same,half-life,"[11]; human, im, intramuscular injection, read-out: t1/2 (absorption rate limited), mean",941 to 1930 h
same,Major route of elimination,[11],Metabolism
same,Metabolic pathways,[11],UGT1A1
same,Metabolic pathways,[11]; minor pathway,UGT1A9 (minor)
same,"antiviral activity in combination with rilpivirine, emtricitabine (FTC), lamivudine (3TC), or tenofovir disoproxil fumarate (TDF)",[12],not antagonistic
same,half-life,[13],40 h
same,"effect on parturition, prenatal and postnatal development study","[14]; oral 1,000 mg/kg/day",delayed the onset of parturition
same,embryo-fetal development in rats,"[14]; oral 1,000 mg/kg/day, in the presence of maternal toxicity",alterations in fetal growth (decreased body weights)
same,placental transfer,[14]; pregnant rats,crosses the placenta
same,"substrate of OATP1B1, OATP1B3, or OCT1",[15],not a substrate
same,substrate of P-gp and BCRP,[15],is a substrate
same,genotoxicity,[16],not genotoxic
same,"induction of CYP1A2, CYP2B6, or CYP3A4",[17],did not induce
same,% of dose excreted as total 14C in feces,[18],59%
same,% of dose excreted as total 14C in urine,[18],27%
same,% of dose excreted as unchanged drug in feces,[18],47%
same,% of dose excreted as unchanged drug in urine,[18],0%

# From patent US12636285B2 (ViiV Healthcare Company, priority 2019, dated 2026)
